Like-named read-outs stand apart in the source and are kept apart here.
Molecular target: T1, rat mGlu2 (Rattus norvegicus, UniProt P31421)
T1 construct: expressed in transfected cells
Assay: mGlu2 Ca2+ flux assay
Format: cell-based
Details: for remaining activity at 30 µM: amplitude of response in the presence of 30 μM test compound as percentage of maximal response to glutamate, read-out: rat mGlu2 Glu max (%)
Description: Gα15 HEK293 cells stably expressing rat mGlu2 were plated in black-walled, clear-bottomed, poly-D-lysine coated 384-well plates in 20 μL of assay medium (DMEM containing 10% dialyzed FBS, 20 mM HEPES, and 1 mM sodium pyruvate) at a density of 12K cells/well. The cells were grown overnight at 37° C. in the presence of 5% CO2. The next day, medium was removed and the cells incubated with 20 μL of 2.3 μM Fluo-4, AM prepared as a 2.3 mM stock in DMSO and mixed in a 1:1 ratio with 10% (w/v) pluronic acid F-127 and diluted in assay buffer (Hank's balanced salt solution, 20 mM HEPES, and 2.5 mM probenecid) for 45 minutes at 37° C. Dye was removed, 20 μL of assay buffer was added, and the plate was incubated for 5 minutes at room temperature.
Ca^2+ flux was measured using the Functional Drug Screening System (FDSS7000, Hamamatsu, Japan). After establishment of a fluorescence baseline for about 3 seconds, the compounds of the present invention were added to the cells, and the response in cells was measured. 2.3 minutes later an EC20 concentration of the mGlu2 receptor agonist glutamate was added to the cells, and the response of the cells was measured for 1.9 minutes; an EC80 concentration of agonist was added and readings taken for an additional 1.7 minutes. All test compounds were dissolved and diluted to a concentration of 10 mM in 100% DMSO. Compounds were then serially diluted 1:3 in DMSO into 10 point concentration response curves, transferred to daughter plates, and further diluted into assay buffer to a 2× stock. Calcium fluorescence measures were recorded as fold over basal fluorescence; raw data was then normalized to the maximal response to glutamate. Antagonism of the agonist response of the mGlu2 receptor in the present invention was observed as a decrease in response to nearly maximal concentrations of glutamate in the presence of compound compared to the response to glutamate in the absence of compound.
The raw data file containing all time points was used as the data source in the analysis template. This was saved by the FDSS as a tab-delimited text file. Data were normalized using a static ratio function (F/F0) for each measurement of the total 360 values per well divided by each well's initial value. Data were then reduced to peak amplitudes (Max−Initial Min) using a time range that starts approximately 3 seconds prior to the glutamate EC80 addition and continues for approximately 90 seconds. This is sufficient time to capture the peak amplitude of the cellular calcium response. Individual amplitudes were expressed as % ECMax by multiplying each amplitude by 100 and then dividing the product by the mean of the amplitudes derived from the glutamate ECMax-treated wells. IC50 values for test compounds were generated by fitting the normalized values versus the log of the test compound concentration (in mol/L) using a 4 parameter logistic equation where none of the parameters were fixed. Each of the three values collected at each concentration of test compound were weighted evenly.
For NAMs, potency (IC50) and maximum response (% Glu Max), i.e. the amplitude of response in the presence of 30 μM test compound as a percentage of the maximal response to glutamate, are reported. […] Compounds with no measurable activity are designated as “>30,000 nM” since the top concentration of compound tested in the assay is 30 μM.

[1] = Gα15 HEK293 cells stably expressing rat mGlu2, glutamate EC80 addition, read-out: rat mGlu2 IC50

T1 sequence (P31421 19-872): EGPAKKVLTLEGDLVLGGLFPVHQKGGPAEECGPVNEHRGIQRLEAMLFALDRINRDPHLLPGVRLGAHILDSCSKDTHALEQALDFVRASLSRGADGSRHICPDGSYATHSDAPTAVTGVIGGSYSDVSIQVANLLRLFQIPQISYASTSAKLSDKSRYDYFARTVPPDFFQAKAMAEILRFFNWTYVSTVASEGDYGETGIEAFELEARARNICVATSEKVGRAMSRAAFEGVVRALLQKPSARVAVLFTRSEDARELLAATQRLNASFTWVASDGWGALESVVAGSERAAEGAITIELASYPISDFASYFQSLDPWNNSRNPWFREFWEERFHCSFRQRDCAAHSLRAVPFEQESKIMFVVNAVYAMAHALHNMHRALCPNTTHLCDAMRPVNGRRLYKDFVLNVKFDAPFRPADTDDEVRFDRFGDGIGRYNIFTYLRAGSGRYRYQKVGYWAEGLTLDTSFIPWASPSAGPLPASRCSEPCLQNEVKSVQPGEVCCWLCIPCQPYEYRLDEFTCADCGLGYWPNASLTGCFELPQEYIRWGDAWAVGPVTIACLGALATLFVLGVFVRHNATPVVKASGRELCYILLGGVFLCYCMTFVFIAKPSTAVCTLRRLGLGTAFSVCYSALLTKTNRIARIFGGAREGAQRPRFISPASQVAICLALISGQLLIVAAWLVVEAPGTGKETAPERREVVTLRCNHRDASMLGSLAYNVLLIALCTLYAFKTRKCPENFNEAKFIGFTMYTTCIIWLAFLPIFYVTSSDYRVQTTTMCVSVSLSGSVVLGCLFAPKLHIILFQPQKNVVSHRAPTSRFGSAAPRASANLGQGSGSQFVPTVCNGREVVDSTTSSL

IC50 [1] | remaining activity at 30 µM | SMILES | IC50
883 nM | 0.83% | NC(=O)c1cn(-c2ccc(F)cc2)c2ccc(COc3cccnc3F)cc2c1=O [Compound 39, 1-(4-fluorophenyl)-6-(((2-fluoropyridin-3-yl)oxy)methyl)-4-oxo-1,4-dihydroquinoline-3-carboxamide] | 
492 ± 97 nM | 1.88 ± 0.38% | NC(=O)c1cn(-c2ccc(F)cc2)c2ccc(CCc3ccncc3)cc2c1=O [Compound 9, 1-(4-fluorophenyl)-4-oxo-6-(2-(pyridin-4-yl)ethyl)-1,4-dihydroquinoline-3-carboxamide] | 
421 nM | 2.18% | Cc1cc(OCc2ccc3c(c2)c(=O)c(C(N)=O)cn3-c2ccc(F)cc2)ccn1 [Compound 33, 1-(4-fluorophenyl)-6-(((2-methylpyridin-4-yl)oxy)methyl)-4-oxo-1,4-dihydroquinoline-3-carboxamide] | 
252 nM | 1.15% | COc1ccc(-n2cc(C(N)=O)c(=O)c3cc(CCc4cnc(C)nc4)ccc32)cc1F [Compound 14, 1-(3-fluoro-4-methoxyphenyl)-6-(2-(2-methylpyrimidin-5-yl)ethyl)-4-oxo-1,4-dihydroquinoline-3-carboxamide] | 
> 10000 nM | 30.3% | Cc1ncc(-c2ccc3c(c2)c(=O)c(C(N)=O)cn3-c2ccc(F)cc2)cn1 [Compound 62, 1-(4-fluorophenyl)-6-(2-methylpyrimidin-5-yl)-4-oxo-1,4-dihydroquinoline-3-carboxamide] | 
2590 nM | 0.92% | NC(=O)c1cn(-c2ccc(F)cc2)c2ccc(CCc3ccccn3)cc2c1=O [Compound 11, 1-(4-fluorophenyl)-4-oxo-6-(2-(pyridin-2-yl)ethyl)-1,4-dihydroquinoline-3-carboxamide] | 
1770 nM | 5.78% | NC(=O)c1cn(-c2ccc(F)cc2)c2c(F)cc(CN3CCC(F)(F)CC3)cc2c1=O [Compound 94, 6-((4,4-difluoropiperidin-1-yl)methyl)-8-fluoro-1-(4-fluorophenyl)-4-oxo-1,4-dihydroquinoline-3-carboxamide] | 
843 nM | 1.92% | Cc1ncc(COc2ccc3c(c2)c(=O)c(C(N)=O)cn3-c2ccc(F)cc2)cn1 [Compound 29, 1-(4-fluorophenyl)-6-((2-methylpyrimidin-5-yl)methoxy)-4-oxo-1,4-dihydroquinoline-3-carboxamide] | 
1290 nM | 1.89% | NC(=O)c1cn(-c2ccc(F)cc2)c2ccc(CN3CCN(C4CC4)CC3)cc2c1=O [Compound 66, 6-((4-cyclopropylpiperazin-1-yl)methyl)-1-(4-fluorophenyl)-4-oxo-1,4-dihydroquinoline-3-carboxamide] | 
1150 nM | 0.77% | NC(=O)c1cn(-c2ccc(F)cc2)c2ccc(NCCN3CCOCC3)cc2c1=O [Compound 28, 1-(4-fluorophenyl)-6-((2-morpholinoethyl)amino)-4-oxo-1,4-dihydroquinoline-3-carboxamide] | 
541 ± 116 nM | 1.55 ± 0.39% | Cc1ccc(COc2ccc3c(c2)c(=O)c(C(N)=O)cn3-c2ccc(F)cc2)cn1 [Compound 21, 1-(4-fluorophenyl)-6-((6-methylpyridin-3-yl)methoxy)-4-oxo-1,4-dihydroquinoline-3-carboxamide] | 
2020 nM | 1.93% | NC(=O)c1cn(-c2ccc(F)cc2)c2ccc(CN3CC4(C3)CC(F)(F)C4)cc2c1=O [Compound 65, 6-((6,6-difluoro-2-azaspiro[3.3]heptan-2-yl)methyl)-1-(4-fluorophenyl)-4-oxo-1,4-dihydroquinoline-3-carboxamide] | 
659 nM | 1.04% | NC(=O)c1cn(-c2ccc(F)cc2)c2ccc(NCC3CCOCC3)cc2c1=O [Compound 53, 1-(4-fluorophenyl)-4-oxo-6-(((tetrahydro-2H-pyran-4-yl)methyl)amino)-1,4-dihydroquinoline-3-carboxamide] | 
544 nM | 0.41% | Cn1cc(-c2ccc3c(c2)c(=O)c(C(N)=O)cn3-c2ccc(F)cc2)cn1 [Compound 61, 1-(4-fluorophenyl)-6-(1-methyl-1H-pyrazol-4-yl)-4-oxo-1,4-dihydroquinoline-3-carboxamide] | 
821 nM | 1.33% | CN(Cc1ccc2c(c1)c(=O)c(C(N)=O)cn2-c1ccc(F)cc1)C1CC1 [Compound 70, 6-((cyclopropyl(methyl)amino)methyl)-1-(4-fluorophenyl)-4-oxo-1,4-dihydroquinoline-3-carboxamide] | 
1150 nM | 1.08% | C[C@@H]1CN(Cc2ccc3c(c2)c(=O)c(C(N)=O)cn3-c2ccc(F)cc2)CCO1 [Compound 89, (R)-1-(4-fluorophenyl)-6-((2-methylmorpholino)methyl)-4-oxo-1,4-dihydroquinoline-3-carboxamide] | 
265 ± 73 nM | 1.62 ± 0.23% | Cc1ccc(OCc2ccc3c(c2)c(=O)c(C(N)=O)cn3-c2ccc(F)cc2)cn1 [Compound 41, 1-(4-fluorophenyl)-6-(((6-methylpyridin-3-yl)oxy)methyl)-4-oxo-1,4-dihydroquinoline-3-carboxamide] | 
1460 nM | 1.28% | NC(=O)c1cn(-c2ccc(F)cc2)c2ccc(COc3ccc(C(F)(F)F)nc3)cc2c1=O [Compound 36, 1-(4-fluorophenyl)-4-oxo-6-(((6-(trifluoromethyl)pyridin-3-yl)oxy)methyl)-1,4-dihydroquinoline-3-carboxamide] | 
419 ± 46 nM | 1.2 ± 0.5% | Cc1cc(-n2cc(C(N)=O)c(=O)c3cc(CCc4cnc(C)nc4)ccc32)sn1 [Compound 22, 1-(3-methylisothiazol-5-yl)-6-(2-(2-methylpyrimidin-5-yl)ethyl)-4-oxo-1,4-dihydroquinoline-3-carboxamide] | 
> 10000 nM | 29.6% | NC(=O)c1cn(-c2ccc(F)cc2)c2ccc(CN3CCCOCC3)cc2c1=O [Compound 72, 6-((1,4-oxazepan-4-yl)methyl)-1-(4-fluorophenyl)-4-oxo-1,4-dihydroquinoline-3-carboxamide] | 
1080 nM | 1.67% | NC(=O)c1cn(-c2ccc(F)cc2)c2ccc(OCc3cccnc3)cc2c1=O [Compound 44, 1-(4-fluorophenyl)-4-oxo-6-(pyridin-3-ylmethoxy)-1,4-dihydroquinoline-3-carboxamide] | 
287 ± 51 nM | 1.71 ± 0.2% | Cc1ncc(OCc2ccc3c(c2)c(=O)c(C(N)=O)cn3-c2ccc(F)cc2)cn1 [Compound 35, 1-(4-fluorophenyl)-6-(((2-methylpyrimidin-5-yl)oxy)methyl)-4-oxo-1,4-dihydroquinoline-3-carboxamide] | 
421 nM | 1.05% | NC(=O)c1cn(-c2ccc(F)cc2)c2ccc(NCc3cccnc3)cc2c1=O [Compound 17, 1-(4-fluorophenyl)-4-oxo-6-((pyridin-3-ylmethyl)amino)-1,4-dihydroquinoline-3-carboxamide] | 
444 nM | 1.91% | NC(=O)c1cn(-c2ccc(F)cc2)c2ccc(NCCc3ccncc3)cc2c1=O [Compound 26, 1-(4-fluorophenyl)-4-oxo-6-((2-(pyridin-4-yl)ethyl)amino)-1,4-dihydroquinoline-3-carboxamide] | 
259 nM | 0.98% | NC(=O)c1cn(-c2ccc(F)cc2)c2ccc(CN3CCC(F)(F)C3)cc2c1=O [Compound 86, 6-((3,3-difluoropyrrolidin-1-yl)methyl)-1-(4-fluorophenyl)-4-oxo-1,4-dihydroquinoline-3-carboxamide] | 

SMILES | IC50 [1] | remaining activity at 30 µM | IC50
CN(Cc1cccnc1)c1ccc2c(c1)c(=O)c(C#N)cn2-c1ccc(F)cc1 [Compound 96, 1-(4-Fluorophenyl)-6-(methyl(pyridin-3-ylmethyl)amino)-4-oxo-1,4-dihydroquinoline-3-carbonitrile] |  | 3.44% | 3160 nM

Reference: patent US9382208B1, “Negative allosteric modulators of metabotropic glutamate receptor 2” (Vanderbilt University, priority 2015, dated 2016)
